US11220518B2, “Substituted n-pyrimidin-4-yl-3-amino-pyrrolo[3,4-c]pyrazoles as protein kinase C inhibitors” (PFIZER INC., priority 2007, dated 2022)

Molecular target: Protein Kinase C beta 2 (PKCβII) (Homo sapiens (Human), UniProt P05771)
Test: Protein Kinase C beta 2 (PKCβII) coupled PK/LDH spectrophotometric kinase assay
Assay type: biochemical
Settings: apparent Ki, ATP-competitive model (Morrison equation); 5 nM PKC, 0.1 mM ATP, 0.15 mM peptide, 30° C., pH 7.4; read-out: Ki app
Protocol: Protein Kinase C beta 2 (PKCβII) catalyzes the production of ADP from ATP that accompanies the phosphoryl transfer to the PKC Pseudosubstrate peptide (A→S, RFARKGSLRQKNV). This transfer is coupled to the oxidation of β-NADH through the activities of Pyruvate Kinase (PK) and Lactate Dehydrogenase (LDH). β-NADH conversion to NAD+ is monitored by the decrease in absorbance at 340 nm (e=6.22 cm^−1 mM^−1) using a Molecular Devices SPECTRA max PLUS spectrophotometer. […]
Steady-state kinetic parameters for the bi-bi kinase reaction were determined at saturating phospho-acceptor peptide substrate concentration (0.15 mM) by fitting initial velocity data to the Michaelis-Menten equation, v=Vmax[S]/(KM[S]) where v is the measured initial velocity, Vmax is the maximal enzyme velocity, [S] is the ATP substrate concentration, and KM is the Michealis constant for ATP. Enzyme turnover values (kcat) were calculated according to […], where [E] is the total enzyme concentration. Enzyme inhibition constants (apparent Ki values) were determined by fitting initial velocities at variable inhibitor concentrations to a model for ATP competitive inhibition based on the Morrison equation). […]

Protein Kinase C beta 2 (PKCβII), sequence (P05771 other isoform, or with tags, fused parts or gaps): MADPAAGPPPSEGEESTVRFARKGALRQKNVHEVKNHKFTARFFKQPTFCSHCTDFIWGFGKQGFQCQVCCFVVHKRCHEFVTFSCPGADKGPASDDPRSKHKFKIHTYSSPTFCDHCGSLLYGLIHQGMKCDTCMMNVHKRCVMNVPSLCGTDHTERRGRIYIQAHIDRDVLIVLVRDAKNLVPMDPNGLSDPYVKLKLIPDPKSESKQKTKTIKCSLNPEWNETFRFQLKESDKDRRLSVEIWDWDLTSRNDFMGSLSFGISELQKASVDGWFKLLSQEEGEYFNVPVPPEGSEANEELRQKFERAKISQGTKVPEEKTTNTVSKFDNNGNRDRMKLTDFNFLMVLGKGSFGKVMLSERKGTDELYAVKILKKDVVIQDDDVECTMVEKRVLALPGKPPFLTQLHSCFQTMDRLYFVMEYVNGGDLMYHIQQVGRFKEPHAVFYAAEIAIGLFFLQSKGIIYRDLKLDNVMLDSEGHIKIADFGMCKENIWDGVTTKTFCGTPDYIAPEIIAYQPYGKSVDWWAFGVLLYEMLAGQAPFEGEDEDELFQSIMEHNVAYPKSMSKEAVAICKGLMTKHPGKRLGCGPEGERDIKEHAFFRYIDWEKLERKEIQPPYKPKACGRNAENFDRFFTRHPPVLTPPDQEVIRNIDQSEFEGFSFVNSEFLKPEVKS

Ki [nM] | SMILES
1.12 | CCOc1ncc(F)c(Nc2n[nH]c3c2CN(C(=O)N2C[C@@H](C)N(C)C[C@@H]2C)C3(C)C)n1 [Example K1, N-(2-ethoxy-5-fluoropyrimidin-4-yl)-6,6-dimethyl-5-{[(2S,5R)-2,4,5-trimethylpiperazin-1-yl]carbonyl}-1,4,5,6-tetrahydropyrrolo[3,4-c]pyrazol-3-amine]
15.6 | COCc1ncc(F)c(Nc2n[nH]c3c2CN(C(=O)N2CC(CCO)N(C)C[C@@H]2C)C3(C)C)n1 (single isomer, unassigned) [Example N3]
